Reference: patent US7033829B2, “Method to inhibit cell growth using oligonucleotides” (Trustees of Boston University, priority 2000, dated 2006)
Oligonucleotides are written 5' to 3', each unit as a sugar letter and its base; * is a phosphorothioate linkage, no mark a phosphodiester; rarer units and linkages stand in square brackets, end groups in braces. Plain capitals give the bases only. d = 2'-deoxy (DNA); {P} = phosphate

Key:
Assay type in all cases: cell-based, human
Jurkat cells = test: TUNEL assay in Jurkat cells; conditions: 40 μM; 72 hours
Experimental: Cells were plated at a density of 180,000 cells/ml in RPMI 1640 medium supplemented with 3% FBS. Cells were treated with 40 μM of either of the oligonucleotides for 72 hours. Cells were then collected, washed and fixed for 30 minutes in 4% paraformaldehyde and then permeabilized with 0.1% Triton X-100 for 2 minutes. The TUNEL assay was carried out with components and instructions of the In Situ Cell Death Detection Kit using fluorescein-labeled dUTP from Boehringer Mannheim. TUNEL-positive cells were detected by FACS analysis and confocal microscopy. […] Uptake of the oligonucleotides was assessed in 5–10 μm sections with a Carl Zeiss LSM 510 confocal laser microscope. […] Fluorescence was measured on the FL-1 channel. […] Antibody Ab-6 (DO-1 clone, Oncogene Research Products, Cambridge, Mass.) detected p53; antibody KH95 (Santa Cruz Biotechnology, Inc., Santa Cruz, Calif.) detected E2F1; antibody Ab-4 (Oncogene Research products) detected p73. Phospho-p53 (serine 15) was detected using the #9284 polyclonal antibody and phospho-p95/Nbs1 (serine 343) was detected by a phospho-p95/Nbs1-specific polyclonal antibody, both antibodies from Cell Signaling Technology (Beverly, Mass.). p95/Nbs1 antibody (#NB-100-143, Novus Biologicals, Littleton, Colo.) and an actin antibody (I-19, Santa Cruz Biotechnology, Santa Cruz, Calif.) were also used. […]

[1] = tested on: E2F1, p73, Mart-1, tyrosinase, TRP-1 and gp-100; test: Western blot of MM-AN melanoma cells
Experimental: Proteins were analyzed by denaturing polyacrylamide gel electrophoresis (SDS-PAGE), using 10% polyacrylamide, and western blot analysis was done with an E2F1-specific monoclonal antibody (KH95 Santa Cruz Biotechnology, Santa Cruz, Calif.), and p73 analyzed using a polyclonal antibody (AB-4 from Oncogene Research Products, San Diego, Calif.). […] In order to determine the contribution of p73 to cell death, MM-AN melanoma cells were stably transfected with a dominant negative p73 (p73DN) (Irwin et al., Nature 402:645–648) construct or empty vector as a control (p73^DN-containing vector a gift from Dr. William Kaelin, Dana Farber Institute, Boston) and paired cultures were supplemented with 40 μM 11mer-1 or diluent alone, then harvested at 72 hours for FACS analysis. […] The above-mentioned differentiation markers are expressed in normal human melanocytes. It appears that the loss of expression of these antigens is a mechanism that a subset of human melanomas uses to escape immunosurveillance defenses. Several peptides from these antigens are targets of tumor infiltrating cytotoxic lymphocytes. Encouraging results have been obtained in vivo with different vaccination strategies using antigenic peptides from the above antigens.

[2] = tested on: BP DNA adducts (CAT reporter plasmid) in H1299 cells; test: Repair of BP-damaged CAT reporter plasmid in H1299 cells
Experimental: Preconfluent cultures of H1299 cells were transfected with an expression vector containing the wild type human p53 cDNA under the control of the human cytomegalovirus promoter/enhancer (Dr. Bert Vogelstein, Johns Hopkins Oncology Center). Control transfections were performed using the same vector lacking the p53 cDNA. Transfections were carried out as described previously.
The pCAT vector (Promega) was treated with benzo[a]pyrene-7,8-diol-9,10-epoxide (BP) as described (Athas et al. Cancer Res 1991) to produce less damaged and more damaged plasmids, previously shown to be instructive in studies examining different repair capacities in human cells. Based on the incorporation of ^3H-BPDE into the DNA, the less damaged plasmid contained 25 adducts per 5 kb plasmid and the more damaged plasmid contained 50 adducts. This non-replicating vector contains the chloramphenicol acetyltransferase gene under control of SV40 promoter and enhancer sequences. Human keratinocytes and p53-transfected H1299 cells were pre-treated with either 100 μM pTpT or an equal volume of diluent (DMEM) alone for 48 hours, then transfected with either BP-modified pCAT-control vector (0.5 μg/ml) or unmodified vector (0.5 μg/ml) together with PSV-β-galactosidase control vector (0.5 μg/ml). Cells were collected in a reporter lysis buffer (Promega) 24 hours after transfection. CAT enzyme activity was determined using the liquid scintillation counting protocol and components of the assay system kit (Promega). ^14C-labeled chloramphenicol[50–60 mCi(1.85–2.22 GBq)/mmol] was purchased from New England Nuclear (Boston, Mass.). CAT activity was normalized with β-galactosidase activity.
To confirm that pTpT enhances repair of BP-DNA adducts, at least in part, through p53 activation, p53-null H1299 cells were transfected with the p53 expression vector, and p53 protein expression was then confirmed by western blot analysis 48 hours after transfection.

Row | Substance | TUNEL fluorescence (FACS, confocal microscopy) (Jurkat cells) | induction of E2F1 and p73 ([1]; 40 μM) | differentiation markers Mart-1, tyrosinase, TRP-1 and gp-100 ([1]; 48–72 hours after treatment) | plasmid repair efficiency versus diluent pre-treated cells ([2]; p53+ H1299 cells, high level of BP damage) | plasmid repaired more efficiently than in diluent pre-treated cells ([2]; p53+ H1299 cells, low level of BP damage) | repair capacity versus diluent ([2]; p53- H1299 cells)
1 | pGTTAGGGTTAG (DNA {P}-dGdTdTdAdGdGdGdTdTdAdG) [SEQ ID NO: 5] | an increase in fluorescence due to end-label incorporation | the same pattern of induction for E2F1 and p73 as observed for Jurkat cells | upregulated |  |  | 
2 | thymidine dinucleotide [pTpT] |  |  |  | more than three times as efficiently | 80%±50% | the repair capacity was the same
